Entries after “also recorded” stand apart in the source; their conditions may differ.

Consider 13 compounds from patent US10723716B2, “Alpha-helix mimetics as modulators of Abeta self-assembly” (New York University, priority 2016, dated 2020).

The target of data set [1] is T1, Aβ42 (Homo sapiens, UniProt P05067).
T1 construct: Cleavage of APP results in several Aβ isoforms; The predominant species are Aβ42 and Aβ40; purchased Anaspec (Fremont, Calif., USA)
The experiment in a line: ThT-based kinetic assay of Aβ42 aggregation. The note with it: for effect on Aβ42 oligomerization/fibrillation (ThT): equimolar ratio; for factor by which Aβ42 aggregation is delayed (rel. t50): 20 μM Aβ42, equimolar ratio. In kind it is biochemical. An excerpt:
The aggregation of Aβ42 was monitored using an established exogenous dye, Thioflavin T (ThT) that intercalates between the amyloid fibers along the perpendicular axis without affecting the kinetics of amyloid formation. (see Wolfe, L. S.; Calabrese, M. F.; Nath, A.; Blaho, D. V.; Miranker, A. D.; Xiong, Y. Proc. Natl. Acad. Sci. U.S.A. 2010, 107, 16863-16868; Levine, H. Protein Sci. 1993, 2, 404-410). A representative ThT-based kinetic assay results are depicted in FIG. 2. The oligomerization reaction of Aβ42 was initiated by diluting a 1 mM stock solution of Aβ42 (in DMSO) to a concentration of 20 μM in phosphate buffer (150 mM KCl, 50 mM NaPi, pH 7.4). Aβ42 fibrillation is a nucleation-dependent polymerization process and is characterized by a sigmoidal curve consisting of a lag phase, an elongation phase, and a plateau phase (FIG. 2a). The kinetic reaction was quantified by extracting t50, which is the time required to reach 50% of the maximum fluorescence that results from fibrillation. Under standard conditions the tso for Aβ42 fibrillation was 2.1±0.2 h (FIG. 2a and FIG. 8).
(§1) Kinetic assays were conducted on a FlexStation 3 Multi-Mode Microplate reader from Molecular Devices (Sunnyvale, Calif., USA). Experiments were conducted in triplicate in a 96-well plate with a final volume of 200 μL per well. Every measurement was an average of 50 readings. The aggregation of an amyloidogenic peptide (Aβ40, Aβ42, or IAPP) was initiated by the addition of the peptide from a stock solution (in DMSO, 0.5-1 mM) to phosphate buffer. The final concentration of each peptide was different based on their aggregation. The stoichiometry of ThT dye for each peptide was 0.5:1 (ThT:peptide). Peptide aggregation was monitored by ThT fluorescence (λex=445 nm and λem=485 nm). The blank sample contained all the components of the peptide samples except the peptide. The sample data were processed by subtracting the fluorescence of the blank sample. The fluorescence intensity data was then normalized by setting the maximum value to 1.
(§2) Kinetic assays in the presence of the compounds of the invention were conducted under the same conditions. The small molecules were added from a stock solution (1 mM or 10 mM in DMSO) to keep the final concentration of DMSO less than 1.0% (v/v). Small molecules were added to the wells with ThT and buffer and mixed gently with a pipette before adding the peptide. To keep the conditions identical, an equal amount of DMSO was added to the wells with the peptide-only control reactions.
(§3) Kinetic profiles were processed using Origin (version 9.1). Kinetic curves were fit using the built-in sigmoidal fit. Each run was fit independently to extract the t50 (time required to reach 50% of the maximum fluorescence intensity). Error bars represent standard deviations from the mean of at least three independent experiments.
In the delayed addition experiments, where the oligopyridylamides were added at various time points during Aβ amyloid reaction, the conditions were same (as used for the assays where Aβ was preincubated with the oligopyridylamides). The Aβ oligomerization process was initiated by dissolving Aβ into buffer solution and then oligopyridylamides were added to this solution at indicated time points (depend on the assay) at an equimolar ratio.

In data set [2] the test system is IAPP mediated toxicity in rat INS-1 cells. The data set is described as follows: IAPP mediated toxicity in INS-1 cells. In kind it is cell-based. Particulars: equimolar ratio, rat INS-1 cells.
For another data set, the system named is Neuro-2a cells. The data set is described as follows: Effect of compound alone on Neuro-2a cell viability. In kind it is cell-based, mouse. Particulars: matched cytotoxic experimental conditions, no Aβ42. The protocol:
To investigate the toxic effect of the peptide alone on cell viability, solution (B) without the oligopyridylamide compound was mixed with solution (A), while the effect of the oligopyridylamide compound alone was determined by adding solution (A) without peptide to solution (B). The effect of oligopyridylamides on seed-catalyzed Aβ42 aggregation was probed by preparing an additional solution (C) containing 0.5 μM seeds. The volume contributed by solution (C) was taken into account in preparing solution (B). Solution (C) was mixed with solution (B), and the resulting mixture was then added to solution (A) shortly before addition to the wells. To study the effect of oligopyridylamides on the oligomeric states of Aβ42, solution (A) was mixed with solution (B) without inhibitor and incubated at room temperature for 1, 2 or 3 h. Subsequently, 50 μM oligopyridylamides was added to the mixture, which was then immediately added to the cells. […] The MTS reagent was incubated for 2.5 h at 37° C., and absorbance of the soluble formazan product (λ=490 nm) of MTS reduction was measured on a Synergy H1MF Multi-Mode microplate-reader (BioTek, Winooski, Vt., USA), with a reference wavelength of 650 nm to subtract the background. Wells treated with a solution containing serum-free DMEM, 200 μM NaOH, 0.1×PBS and 0.5% (v/v) DMSO served as control. MTS reduction was determined from the ratio of the absorbance of the treated wells to the control wells. Each data point represents an average of four independent quadruplet-well trials.

For data set [3], the system named is Aβ42 mediated toxicity in mouse neuroblastoma (N2a) cells. The experiment in a line: Aβ42 mediated toxicity in Neuro-2a cells (MTS cell viability). In kind it is cell-based. The note with it: for effect on Aβ42 mediated cytotoxicity: equimolar ratio, Neuro-2a cells; for rank order for the antagonist activity: Aβ42 mediated cytotoxicity and aggregation, 5 μM, 1:1 (FIG. 26a). The protocol:
Cell viability was determined using a CellTiter 96® AQueous One Solution Cell Proliferation Assay (MTS) kit (Promega), which measures the reduction of the tetrazolium compound MTS (3-(4,5-dimethylthiazol-2-yl)-5-(3-carboxymethoxyphenyl)-2-(4-sulfophenyl)-2H-tetrazolium, inner salt) to soluble formazan by mitochondrial dehydrogenase enzyme in living cells. Formazan can be measured at 490 nm according to the manufacturer's instructions.
Neuro-2a cells (ATCC® […]) were maintained in serum-containing media [Dulbecco's Modified Eagle's Medium—high glucose (DMEM, Sigma) supplemented with 10% foetal bovine serum (FBS), 4 mM L-Glutamine (Sigma), and 1% penicillin/streptomycin (Sigma)] in 5% CO2 at 37° C. Once the cells reached ˜95% confluence, they were split (using 0.25% trypsin-EDTA, Sigma, St. Louis, USA), seeded at a density of 5×10^3 cells/well in 100 μL complete medium in 96-well plates and cultured for 48 h. Thereafter, the media was removed, the cells washed with phosphate buffered saline (PBS), and 90 μL of serum-free DMEM was added to the wells. A solution (A) containing 50 μM Aβ42 in NaOH (pH 10.5) was prepared and kept on ice, and a solution (B) containing 50 μM of the oligopyridylamide compound, H2O (2.33 μL/well) and 1× and 10×PBS was prepared and kept at room temperature. The solutions were combined, vortexed and 10 μL of this solution immeadiatly added to each well. The final concentrations in the wells were: 5 μM Aβ42, 5 μM oligopyridylamide, 200 μM NaOH, 0.1×PBS and 0.5% (v/v) DMSO.
To investigate the toxic effect of the peptide alone on cell viability, solution (B) without the oligopyridylamide compound was mixed with solution (A), while the effect of the oligopyridylamide compound alone was determined by adding solution (A) without peptide to solution (B). The effect of oligopyridylamides on seed-catalyzed Aβ42 aggregation was probed by preparing an additional solution (C) containing 0.5 μM seeds. The volume contributed by solution (C) was taken into account in preparing solution (B). Solution (C) was mixed with solution (B), and the resulting mixture was then added to solution (A) shortly before addition to the wells. To study the effect of oligopyridylamides on the oligomeric states of Aβ42, solution (A) was mixed with solution (B) without inhibitor and incubated at room temperature for 1, 2 or 3 h. Subsequently, 50 μM oligopyridylamides was added to the mixture, which was then immediately added to the cells. After culturing for 72 h in 5% CO2 at 37° C., 20 μL of MTS reagent was added to each well. The MTS reagent was incubated for 2.5 h at 37° C., and absorbance of the soluble formazan product (λ=490 nm) of MTS reduction was measured on a Synergy H1MF Multi-Mode microplate-reader (BioTek, Winooski, Vt., USA), with a reference wavelength of 650 nm to subtract the background. Wells treated with a solution containing serum-free DMEM, 200 μM NaOH, 0.1×PBS and 0.5% (v/v) DMSO served as control. MTS reduction was determined from the ratio of the absorbance of the treated wells to the control wells. Each data point represents an average of four independent quadruplet-well trials.

The next data set deals with T2, IAPP (Homo sapiens, UniProt P10997).
T2 construct: purchased Anaspec (Fremont, Calif., USA)
T2 sequence (P10997 34-70 limits assumed): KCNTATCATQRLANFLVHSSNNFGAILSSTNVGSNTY
The experiment in a line: ThT-based kinetic assay of IAPP aggregation. Type of data set: biochemical. Particulars: equimolar ratio (IAPP 10 μM, FIG. 25c, 26c, 27m). The protocol:
as §1, §2, §3

For data set [4], the target named is T1, Aβ42. The data set is described as follows: ThT-based kinetic assay of Aβ42 aggregation. Particulars: 5 μM, 1:1 (Ligand:Aβ42); without ligand 100%. In kind it is biochemical.

T1 sequence (P05067 672-713 limits assumed): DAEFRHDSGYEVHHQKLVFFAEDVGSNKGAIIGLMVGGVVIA

As for `COC(=O)c1ccc([N+](=O)[O-])c(OCCCN)n1` [ADH-3], on Aβ42 [1], the “effect on Aβ42 oligomerization/fibrillation (ThT)” value is recorded as “No noticeable effect”.
On the same count and under the same terms, the same measure for `COC(=O)c1ccc([N+](=O)[O-])c(OC2CCCCC2)n1` [ADH-5]: “No noticeable effect”.
Consider `COC(=O)c1ccc(NC(=O)c2ccc(NC(=O)c3ccc([N+](=O)[O-])c(OCC(=O)O)n3)c(OCc3ccccc3)n2)c(OCC(=O)O)n1` [ADH-17], for which the “effect on IAPP mediated toxicity” value in data set [2] is reported as “completely inhibits”. Also, in the data set on Neuro-2a cells, the “toxicity of compound alone to Neuro-2a cells” value (“toxicity of compound alone” for short) is reported as “not toxic”. Besides, the “effect on Aβ42 oligomerization/fibrillation (ThT)” value at Aβ42 [1] was “no effect”. For the same compound, the “effect on Aβ42 mediated cytotoxicity” value in data set [3] is “no effect”. At IAPP, the “effect on IAPP fibrillation / amyloid formation (ThT)” value is reported as “completely inhibits”.
As to `COC(=O)c1ccc(NC(=O)c2ccc(NC(=O)c3ccc([N+](=O)[O-])c(OCCCN)n3)c(OCCCN)n2)c(OCCCN)n1` [ADH-19], at Aβ42 [1], the “factor by which Aβ42 aggregation is delayed (rel. t50)” value (from here on “factor”) amounted to 3.2±0.3 and the “effect on Aβ42 oligomerization/fibrillation (ThT)” value is reported as “effective in blocking”.
Take `COC(=O)c1ccc(NC(=O)c2ccc(NC(=O)c3ccc([N+](=O)[O-])c(OCc4ccccc4)n3)c(OCC(=O)O)n2)c(OCC(=O)O)n1` [ADH-27]: the “toxicity of compound alone” value with Neuro-2a cells was “not toxic”.
As for `COC(=O)c1ccc(NC(=O)c2ccc(NC(=O)c3ccc([N+](=O)[O-])c(OCCCN)n3)c(OCc3ccccc3)n2)c(OCCCN)n1` [ADH-37], the “effect on Aβ42 oligomerization/fibrillation (ThT)” value on Aβ42 [1] was “weak inhibitor”. In data set [3], the “effect on Aβ42 mediated cytotoxicity” value is listed as “did not have a noticeable effect”. Besides, the “ThT fluorescence intensity of the amyloid reaction” value at Aβ42 [4] was 74%.
Regarding `COC(=O)c1ccc(NC(=O)c2ccc(NC(=O)c3ccc([N+](=O)[O-])c(OC(C)C)n3)c(OCc3ccccc3)n2)c(OCCCN)n1` [ADH-39], in the data set with Neuro-2a cells, the “toxicity of compound alone” value is recorded as “not toxic”. Also, the “effect on Aβ42 oligomerization/fibrillation (ThT)” value at Aβ42 [1] was “accelerated”. Further, the “effect on Aβ42 mediated cytotoxicity” value in data set [3] was “effective at inhibiting cytotoxicity; also recorded: effective at rescuing cells; also recorded: equally effective”.
On to `CCCCOc1nc(C(=O)Nc2ccc(C(=O)Nc3ccc(C(=O)OC)nc3OCCCN)nc2OCCCN)ccc1[N+](=O)[O-]` [ADH-40], for which the “toxicity of compound alone” value in the data set on Neuro-2a cells is “not toxic”. The “rank order for the antagonist activity” value in data set [3] is recorded as “ADH41>ADH46>ADM-40≥ADM-45A”.
Turning to `COC(=O)c1ccc(NC(=O)c2ccc([N+](=O)[O-])c(OCc3ccccc3)n2)c(OCCCN)n1` [ADH-43], on Aβ42 [1], the “factor” value is 3.3±0.4 and the “effect on Aβ42 oligomerization/fibrillation (ThT)” value was “effective in blocking”.
Regarding `COC(=O)c1ccc(NC(=O)c2ccc([N+](=O)[O-])c(OCCCN)n2)c(OCCCN)n1` [ADH-44], at Aβ42 [1], the “factor” value is 2.4±0.3.
With `CCOc1nc(C(=O)Nc2ccc(C(=O)Nc3ccc(C(=O)OC)nc3OCCCN)nc2OCCCN)ccc1[N+](=O)[O-]` [ADH-45A], the “toxicity of compound alone” value in the data set with Neuro-2a cells is recorded as “not toxic”. The “rank order for the antagonist activity” value in data set [3] is given as “ADH41>ADH46>ADM-40≥ADM-45A”.
For `COC(=O)c1ccc(NC(=O)c2ccc(NC(=O)c3ccc([N+](=O)[O-])c(OCC(C)C)n3)c(OCCCN)n2)c(OCCCN)n1` [ADH-46], in data set [3], the “rank order for the antagonist activity” value was “ADH41>ADH46>ADM-40≥ADM-45A” and the “effect on Aβ42 mediated cytotoxicity” value is “effective at rescuing cells”.
In the case of `CCCCCCOc1nc(C(=O)Nc2ccc(C(=O)Nc3ccc(C(=O)OC)nc3OCCCN)nc2OCc2ccccc2)ccc1[N+](=O)[O-]` [ADH-52], in the data set with Neuro-2a cells, the “toxicity of compound alone” value is “not toxic”. The “effect on Aβ42 mediated cytotoxicity” value in data set [3] is listed as “effective at rescuing cells”.
